Test results published in paper PMC4818757, “Small molecule inhibitors of the Dishevelled‐CXXC5 interaction are new drug candidates for bone anabolic osteoporosis therapy” (EMBO Molecular Medicine, 2016).

Legend:
primary calvaria cells = experiment: β-catenin / Runx2 immunofluorescence in primary calvaria cells; assay type: cell-based, mouse
[1] = system: ovariectomized (OVX) mice; experiment: OVX-induced osteoporosis mouse model; assay type: in vivo
Protocol: Figure 6 Effects of KY‐02327 on OVX‐induced osteoporosis model mice • A–H Vehicle or 20 mg of KY‐02327 per kg of animal body weight (mpk) was orally administered or 0.06 mpk of the N‐terminal fragment of PTH (amino acids 1‐34) was subcutaneously injected into the Sham‐operated (Sham) or ovariectomized (OVX) mice on 5 sequential days per week for 4 weeks (n = 4). After calcein injection, the prepared femoral sections of the OVX mice were examined under fluorescence microscope to visualize integrated calcein (A, green, arrows). Nuclei were counterstained with DAPI (A, blue). Scale bars, 100 μm. Osteoblast numbers (B) and calcein double‐labeled surfaces (C) were measured in the femoral sections. The mouse femurs were analyzed using micro‐CT, and BMD (D) and BV/TV (E) were calculated from the micro‐CT data. The three‐dimensional images of femoral trabecular bone were reconstructed (F), and trabecular number (G) and trabecular separation (H) were calculated. Data Information: The data are the mean ± s.d. (error bars). Significance was assessed using Kruskal–Wallis test.
This animal study was approved by the Institutional Review Board of Severance Hospital, Yonsei University College of Medicine. The mice were housed in filter‐topped shoebox cages with a computerized environmental control system (MJ LTD, Seoul, Korea). The care and treatment of experimental animals were performed in accordance with institutional guidelines. The room temperature was maintained at 26.5°C with a relative humidity of approximately 40–70%. The mice were given a standard maintenance diet from Dae Han Bio Link (Daejeon, Korea). For OVX mouse experiments, the surgeries were performed with 8‐week‐old female BL6 mice under anesthesia with avertin (2,2,2‐tribromoethanol; Worthington Biochemical, Freehold, NJ) as described previously (Zahoor et al, 2014). After removing the hair, dorsal incisions were made into the dermal layers above both sides of the ovaries using dissection scissors. The connection between the fallopian tube and the uterine horn was cut, and the ovary was removed. The incision was then sutured with 3 single catgut stitches. Sham mice were used as controls. After 4 weeks, the OVX group was divided into three groups for oral administration of vehicle (saline containing 10% Tween‐60) or 20 mg of KY‐02327 per kg of animal body weight (mpk) of KY‐02327, or for subcutaneous injection of 0.06 mpk of N‐terminal fragment of PTH (amino acids 1–34), which were administered for 5 sequential days per week for 4 weeks. The animals were sacrificed, and the organs were harvested for analysis. For the calcein double‐labeling experiment (Pall et al, 1987), calcein (10 mpk in 2% sodium hydrocarbonate, pH 7.4) was injected twice, on the last day of the 2nd and 3rd week. All the mice were randomly assigned to each groups, and the investigators were blinded to the group allocation during the treatments and experiments.
The mouse femurs were scanned using a micro‐CT system (Skyscan 1072; Skyscan, Aartselaar, Belgium). The scanned image data were reconstructed to create 3D images and analyzed using the CT‐Analyzing Program (Skyscan). For femoral trabecular bone analysis, the femurs were scanned with a voxel size of 10 μm, beginning at the end of the growth plate and extending proximally along the diaphysis, and 80 continuous slices (beginning at 0.1 mm from the most proximal aspect of the growth plate in which both condyles were no longer visible) were selected for analysis.
The femurs of OVX mice and the calvariae of 4‐day‐old mice were fixed in 4% paraformaldehyde in PBS. The bones were then decalcified in 10 mM EDTA and embedded in paraffin. Five‐micrometer tissue sections were deparaffinized in 100% xylene followed by re‐hydration with sequential 100% to 50% ethanol washes. The sections were stained with hematoxylin and eosin (H&E), and light micrographs were captured using a SMZ645 Nikon microscope (Nikon, Tokyo, Japan). […]

Dvl PDZ domain [2] = target: T1, Dvl PDZ domain (Homo sapiens, UniProt O14640); experiment: Fluorescence quenching of Dvl PDZ domain; conditions: read-out: binding affinity between Dvl PDZ domain and compound
T1 construct: plasmid DNA encoding Dvl-1247- 341 (the Dvl PDZ domain); His-tag (TEV-cleavable) (cleaved yes); made in house; host or cells: E. coli BL21 (DE3)
T1 sequence (O14640 247-341 limits assumed): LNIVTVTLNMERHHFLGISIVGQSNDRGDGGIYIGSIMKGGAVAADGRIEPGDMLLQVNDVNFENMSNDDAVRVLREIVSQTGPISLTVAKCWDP
Protocol: Figure 4 Binding of KY‐02327, a KY‐02061 analog, on Dvl PDZ domain • A The chemical structure of KY‐02327. • B A competition curve for the Dvl–CXXC5 interaction by KY‐02327. • C Fluorescence quenching plot of Dvl PDZ domain upon addition of different amounts of KY‐02327. From top to bottom, final molar ratio between Dvl PDZ and KY‐02327 was 1:0, 1:1, 1:2, 1:3, 1:4, 1:5, 1:6, 1:7, 1:8, 1:9, 1:10, 1:15, 1:20, and 1:25, respectively. • D–F ^1H‐^15N‐HSQC analyses were performed to analyze the interaction of ^15N‐labeled Dvl PDZ domain with KY‐02327. […] Plot of chemical shift changes (Δδ) as a function of residue number in molecular ratio 1:20 (E, a red‐colored line indicates the line for Δδ = 0.05). The residues with Δδ greater than 0.05 are visualized as a stick model on the ribbon representation of the Dvl PDZ domain structure (F). • G Molecular docking of KY‐02061 or KY‐02327 to Dvl PDZ domain was analyzed by in silico experiments. The superimposed structure of KY‐02061 (yellow) and KY‐02327 (cyan) on the surface of Dvl PDZ domain (gray) was visualized.

Dvl PDZ domain [3] = target: T1, Dvl PDZ domain; experiment: Surface plasmon resonance; assay type: binding
Protocol: Studies on the interaction between compounds and Dvl PDZ domain were performed by surface plasmon resonance spectroscopy using the ProteOn™ XPR36 protein interaction array system (Bio‐Rad Laboratories, Inc., Hercules, CA). Purified Dvl PDZ domain was immobilized on a sensor chip, and then, various concentration of KY‐02327 in ProteOn PBS/Tween running buffer (PBS, pH 7.4 with 0.05% Tween 20) was flowed over the chip at a flow rate of 100 μl/min. The refractive index reflecting the mass concentration on the sensor surface is measured according to the manufacturer's instruction. Data were analyzed using ProteOn Manager Software 2.0 (Bio‐Rad Laboratories, Inc.).

[4] = KY‐02327 20 mpk oral, PTH 0.06 mpk subcutaneous, 4 weeks
[5] = KY‐02327 20 mpk oral, PTH 0.06 mpk subcutaneous, 5 days per week for 4 weeks

CCOC(=O)Cn1c(C(=O)OCC)cc2cc(OS(=O)(=O)c3ccc(C)cc3)ccc21 [KY‐02061]
nuclear accumulation of β‐catenin (primary calvaria cells; 2 μM, 2 days): strong accumulation
levels of Runx2 and β‐catenin (primary calvaria cells; 5 μM, 14 days): increased levels

CCOC(=O)c1cc2cc(O)ccc2n1CC(=O)NCCN1CCCCC1 [KY‐02327]
histology of livers, lungs, spleens ([1]; 4 weeks treatment, H&E): No histological abnormalities
weight of treated mice ([1]; 4‐week treatment): did not change significantly
destroyed trabecular bones (3D micro-CT images) [1, 4]: rescued
mineral contents of the bone (BMD), femur, micro‐CT [1, 4]: significantly increased
trabecular bone number [1, 4]: increase
trabecular separation [1, 4]: decrease
volume of bone (BV/TV) ([1]; KY‐02327 20 mpk oral, PTH 0.06 mpk subcutaneous, 4 weeks, vs vehicle): increased
calcein double‐labeled surface [1, 5]: increased
new bone formation (calcein-labeled) in femur [1, 5]: recovered
number of osteoblasts [1, 5]: increased
calcein double-labelled surface, fold increase ([1]; OVX mice, 20 mpk oral): approximately 2 fold
number of osteoblasts, fold increase ([1]; OVX mice, 20 mpk oral): approximately 2 fold
Kd (Dvl PDZ domain [2]): 8.31 ± 0.8 µM
binding to Dvl PDZ domain by surface plasmon resonance (Dvl PDZ domain [3]): binds with Dvl PDZ domain in a dose‐dependent manner
